Source: patent US9611223B2, “3-aryl-5-substituted-isoquinolin-1-one compounds and their therapeutic use” (INSTITUTE OF CANCER RESEARCH: ROYAL CANCER HOSPITAL (THE), priority 2013, dated 2017)

System: DLD1 cells
Assay: Long-Term Clonogenic Assay (DLD1 cells)
Assay type: cell-based
Conditions: Homo sapiens, DLD-1, 12-14 days, read-out: cell inhibitory SF50 (DLD1)
Experimental: Clonogenic Inhibition in DLD1 or HT55 Cells
In order to determine the efficacy of chronic dosing of putative TNKS inhibitors, long term clonogenic or ‘colony formation’ assays were carried out. This included the sparse seeding of cells in a 6-well dish followed by continuous dosing of cells over 12-14 days (depending on relative cell growth). Appropriate cell lines (DLD1 or HT55) were seeded at 500 cells/well in a 6-well dish in DMEM supplemented with FBS. After overnight incubation, cells were treated with the appropriate putative TNKS inhibitor at 10 μM, 3 μM, 1 μM, 0.30 μM, 0.1 μM and 0 μM at 0.2-1% final DMSO concentration (cell line dependent) in DMEM supplemented with 10% FBS (DLD1 cells were dosed in DMEM supplemented with 0.5% FBS). Dosages were carried out in triplicate. Cell media containing compound or DMSO only was replenished every 48 hours. On termination of the assay, plates were read with Cell Titre Glo reagent and luminescence measured on an appropriate plate reader.
The data was normalised to the DMSO control and was expressed as surviving fraction as a function of inhibitor dose. Dose response curves used to determine SF50 values were Log transformed and analysed by non-linear regression analysis (variable slope) using Prism (GraphPad Software, Inc).

CN1CCN(Cc2ccc(-c3cc4c(C#N)cccc4c(=O)[nH]3)cc2)CC1 [IQ-002, 3-[4-(4-Methyl-piperazin-1-ylmethyl)-phenyl]-1-oxo-1,2-dihydro-isoquinoline-5-carbonitrile]
IC50: 2300 nM
